This note sets out measurements from ChEMBL document CHEMBL1140533, “Discovery of 5-HT6 receptor ligands based on virtual HTS” (Bioorg Med Chem Lett, 2007).

Structures are written as SMILES. The source made the active and inactive calls. The calls are words filed in the database; no cut-off is given here. Where only a bound is given, the exact number is not on record here.

The target in assay [1] is T1, 5-hydroxytryptamine receptor 6 (Homo sapiens, UniProt P50406). The assay is described as follows: Displacement of [3H]LSD from 5HT6 receptor expressed in HEK293 cells at 10 uM. It counts as cell-based. A general note: Displacement assays read how much labelled ligand stays bound in the presence of the test substance.
T1 sequence (P50406 whole entry): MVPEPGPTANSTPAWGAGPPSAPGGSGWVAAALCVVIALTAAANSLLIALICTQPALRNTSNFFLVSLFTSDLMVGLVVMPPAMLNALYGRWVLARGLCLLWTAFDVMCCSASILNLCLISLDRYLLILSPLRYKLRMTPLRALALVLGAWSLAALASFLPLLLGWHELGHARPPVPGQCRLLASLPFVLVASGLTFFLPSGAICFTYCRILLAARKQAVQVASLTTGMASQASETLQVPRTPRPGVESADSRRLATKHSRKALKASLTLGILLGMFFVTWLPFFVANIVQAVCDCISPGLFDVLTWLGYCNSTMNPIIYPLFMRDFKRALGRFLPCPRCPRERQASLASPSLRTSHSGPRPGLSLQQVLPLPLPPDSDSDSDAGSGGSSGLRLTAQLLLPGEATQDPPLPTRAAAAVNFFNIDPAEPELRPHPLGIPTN
For assay [2], the target named is T1, 5-hydroxytryptamine receptor 6. The assay is described as follows: Displacement of [3H]LSD from 5HT6 receptor expressed in HEK293 cells. It counts as cell-based.
In assay [3] the target is T2, 5-hydroxytryptamine receptor 2C (Homo sapiens) (UniProt P28335).
T2 sequence (whole entry): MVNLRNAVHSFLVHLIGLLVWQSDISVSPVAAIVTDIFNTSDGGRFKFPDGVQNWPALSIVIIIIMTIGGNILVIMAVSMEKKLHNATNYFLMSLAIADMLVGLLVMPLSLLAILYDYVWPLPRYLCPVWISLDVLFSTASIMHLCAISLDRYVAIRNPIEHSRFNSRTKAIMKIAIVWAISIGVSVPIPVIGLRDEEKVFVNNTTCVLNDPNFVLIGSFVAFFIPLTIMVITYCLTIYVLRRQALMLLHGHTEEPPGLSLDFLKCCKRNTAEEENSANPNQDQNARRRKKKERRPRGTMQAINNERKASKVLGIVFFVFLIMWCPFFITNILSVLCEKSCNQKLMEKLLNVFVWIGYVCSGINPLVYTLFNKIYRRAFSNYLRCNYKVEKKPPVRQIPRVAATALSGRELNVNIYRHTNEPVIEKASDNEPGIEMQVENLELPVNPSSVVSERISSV
Briefly: Binding affinity at 5HT2C receptor at 1 uM.

Assay [4] addresses Histamine H1 receptor (Homo sapiens) (UniProt P35367). The assay is described as follows: Binding affinity at histamine H1 receptor at 1 uM.
In assay [5] the target is 5-hydroxytryptamine receptor 2B (Homo sapiens) (UniProt P41595). The assay is described as follows: Binding affinity at 5HT2B receptor at 1 uM.
5-hydroxytryptamine receptor 2B (Homo sapiens), sequence (P41595 whole entry): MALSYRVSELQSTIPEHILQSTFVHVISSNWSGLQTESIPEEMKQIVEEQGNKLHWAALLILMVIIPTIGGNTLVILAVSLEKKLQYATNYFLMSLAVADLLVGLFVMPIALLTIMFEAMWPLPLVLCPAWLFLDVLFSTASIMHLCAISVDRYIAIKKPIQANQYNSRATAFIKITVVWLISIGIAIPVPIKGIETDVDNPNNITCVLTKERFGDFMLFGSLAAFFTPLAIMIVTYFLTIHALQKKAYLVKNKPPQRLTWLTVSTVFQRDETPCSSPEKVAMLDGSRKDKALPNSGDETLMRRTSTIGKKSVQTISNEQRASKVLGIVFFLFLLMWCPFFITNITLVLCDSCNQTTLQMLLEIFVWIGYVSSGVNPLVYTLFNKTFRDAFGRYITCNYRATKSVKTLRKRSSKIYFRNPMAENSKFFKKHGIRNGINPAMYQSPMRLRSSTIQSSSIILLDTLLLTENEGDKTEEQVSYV
The target in assay [6] is 5-hydroxytryptamine receptor 7 (Homo sapiens) (UniProt P34969). The assay is described as follows: Binding affinity at 5HT7 receptor at 1 uM.
5-hydroxytryptamine receptor 7 (Homo sapiens), sequence (P34969 whole entry): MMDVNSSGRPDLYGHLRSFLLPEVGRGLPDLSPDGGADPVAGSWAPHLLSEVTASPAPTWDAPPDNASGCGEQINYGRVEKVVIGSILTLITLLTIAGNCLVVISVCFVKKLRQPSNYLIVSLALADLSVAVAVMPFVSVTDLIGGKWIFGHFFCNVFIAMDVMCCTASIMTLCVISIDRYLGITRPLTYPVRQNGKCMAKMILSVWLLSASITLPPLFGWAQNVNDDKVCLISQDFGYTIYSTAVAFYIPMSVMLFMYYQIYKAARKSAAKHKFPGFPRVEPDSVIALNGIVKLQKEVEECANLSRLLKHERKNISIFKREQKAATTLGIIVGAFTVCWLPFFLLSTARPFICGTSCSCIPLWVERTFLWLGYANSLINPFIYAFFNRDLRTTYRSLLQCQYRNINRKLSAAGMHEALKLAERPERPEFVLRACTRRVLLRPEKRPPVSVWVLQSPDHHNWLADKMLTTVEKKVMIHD
Assay [7] has as its target T3, 5-hydroxytryptamine receptor 2A (Homo sapiens, UniProt P28223). The assay is described as follows: Binding affinity at 5HT2A receptor.
Assay [8] addresses T3, 5-hydroxytryptamine receptor 2A. Briefly: Binding affinity at 5HT2A receptor at 1 uM.
The target in assay [9] is Sodium-dependent serotonin transporter (Homo sapiens) (UniProt P31645). The assay is described as follows: Inhibition of SERT at 10 uM.
Sodium-dependent serotonin transporter (Homo sapiens), sequence (P31645 whole entry, looked up): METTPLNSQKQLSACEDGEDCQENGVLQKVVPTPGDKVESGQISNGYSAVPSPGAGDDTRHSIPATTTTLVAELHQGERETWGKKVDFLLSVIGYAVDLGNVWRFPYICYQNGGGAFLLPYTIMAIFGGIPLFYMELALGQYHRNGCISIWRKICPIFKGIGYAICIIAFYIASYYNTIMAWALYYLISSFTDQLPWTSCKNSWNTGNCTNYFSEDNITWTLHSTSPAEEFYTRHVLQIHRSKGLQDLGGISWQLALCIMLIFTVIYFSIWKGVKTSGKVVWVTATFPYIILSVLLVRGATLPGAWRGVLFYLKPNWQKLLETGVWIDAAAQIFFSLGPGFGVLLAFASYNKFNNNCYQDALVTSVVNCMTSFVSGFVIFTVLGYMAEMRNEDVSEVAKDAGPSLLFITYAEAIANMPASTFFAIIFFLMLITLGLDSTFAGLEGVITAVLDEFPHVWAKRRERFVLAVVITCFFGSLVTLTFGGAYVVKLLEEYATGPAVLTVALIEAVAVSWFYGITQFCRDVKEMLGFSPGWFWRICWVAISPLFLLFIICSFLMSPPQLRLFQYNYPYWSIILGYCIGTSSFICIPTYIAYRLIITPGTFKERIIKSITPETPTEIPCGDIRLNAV
The target of assay [10] is D(3) dopamine receptor (Homo sapiens) (UniProt P35462). Briefly: Inhibition of dopamine D3 receptor at 10 uM.
D(3) dopamine receptor (Homo sapiens), sequence (P35462 whole entry): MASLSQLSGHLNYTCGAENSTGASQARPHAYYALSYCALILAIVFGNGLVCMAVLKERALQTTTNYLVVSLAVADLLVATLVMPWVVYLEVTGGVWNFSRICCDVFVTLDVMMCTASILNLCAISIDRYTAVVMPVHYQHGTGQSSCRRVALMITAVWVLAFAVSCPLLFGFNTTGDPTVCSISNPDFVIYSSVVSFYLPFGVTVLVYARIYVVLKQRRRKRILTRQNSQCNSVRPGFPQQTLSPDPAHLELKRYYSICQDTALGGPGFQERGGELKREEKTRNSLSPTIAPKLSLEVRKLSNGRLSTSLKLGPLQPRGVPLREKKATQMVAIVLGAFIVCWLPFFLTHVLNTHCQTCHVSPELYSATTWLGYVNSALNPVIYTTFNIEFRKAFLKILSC
The target of assay [11] is T4, 5-hydroxytryptamine receptor 3A (Homo sapiens) (UniProt P46098).
T4 sequence (whole entry): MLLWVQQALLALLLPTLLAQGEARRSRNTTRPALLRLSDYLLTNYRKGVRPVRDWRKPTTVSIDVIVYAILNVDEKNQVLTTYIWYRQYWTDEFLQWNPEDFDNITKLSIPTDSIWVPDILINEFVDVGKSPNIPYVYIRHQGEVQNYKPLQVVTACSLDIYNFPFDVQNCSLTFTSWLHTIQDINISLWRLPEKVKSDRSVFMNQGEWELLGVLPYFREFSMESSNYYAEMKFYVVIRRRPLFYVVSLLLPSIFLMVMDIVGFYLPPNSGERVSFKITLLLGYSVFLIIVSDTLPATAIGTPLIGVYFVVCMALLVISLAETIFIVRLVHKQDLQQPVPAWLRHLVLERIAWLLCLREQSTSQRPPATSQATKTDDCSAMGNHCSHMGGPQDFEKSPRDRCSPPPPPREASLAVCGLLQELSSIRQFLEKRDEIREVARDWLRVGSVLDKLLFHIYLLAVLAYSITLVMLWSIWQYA
Briefly: Inhibition of 5HT3 receptor at 10 uM.

Assay [12] addresses 5-hydroxytryptamine receptor 4 (Homo sapiens) (UniProt Q13639). Briefly: Inhibition of 5HT4 receptor at 10 uM.
Assay [13] addresses 5-hydroxytryptamine receptor 5A (Homo sapiens) (UniProt P47898). Briefly: Inhibition of 5HT5A receptor at 10 uM.
Assay [14] deals with T2, 5-hydroxytryptamine receptor 2C (Homo sapiens). Briefly: Inhibition of 5HT2C receptor at 10 uM.
The target of assay [15] is 5-hydroxytryptamine receptor 2B (Homo sapiens) (UniProt P41595). The assay is described as follows: Inhibition of 5HT2B receptor at 10 uM.
Assay [16] concerns the target 5-hydroxytryptamine receptor 1B (Homo sapiens) (UniProt P28222). Briefly: Inhibition of 5HT1B receptor at 10 uM.
The target of assay [17] is 5-hydroxytryptamine receptor 7 (Homo sapiens) (UniProt P34969). Briefly: Inhibition of 5HT7 receptor at 10 uM.
For assay [18], the target named is Histamine H1 receptor (Homo sapiens) (UniProt P35367). Briefly: Inhibition of histamine H1 receptor at 10 uM.
Histamine H1 receptor (Homo sapiens), sequence (P35367 whole entry): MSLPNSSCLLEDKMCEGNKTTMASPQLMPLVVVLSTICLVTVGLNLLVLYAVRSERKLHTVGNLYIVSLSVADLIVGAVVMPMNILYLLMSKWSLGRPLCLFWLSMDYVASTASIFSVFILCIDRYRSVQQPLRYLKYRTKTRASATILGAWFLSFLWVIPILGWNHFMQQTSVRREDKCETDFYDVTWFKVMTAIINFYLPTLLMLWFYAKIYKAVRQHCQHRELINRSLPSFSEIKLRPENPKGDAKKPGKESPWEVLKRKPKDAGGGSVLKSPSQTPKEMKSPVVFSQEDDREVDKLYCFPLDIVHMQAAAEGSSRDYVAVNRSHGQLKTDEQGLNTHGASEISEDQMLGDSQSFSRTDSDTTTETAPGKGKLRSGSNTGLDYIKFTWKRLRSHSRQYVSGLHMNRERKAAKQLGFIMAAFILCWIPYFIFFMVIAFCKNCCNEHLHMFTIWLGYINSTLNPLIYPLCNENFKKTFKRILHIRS
The target in assay [19] is T5, 5-hydroxytryptamine receptor 1A (Homo sapiens) (UniProt P08908).
T5 sequence (whole entry): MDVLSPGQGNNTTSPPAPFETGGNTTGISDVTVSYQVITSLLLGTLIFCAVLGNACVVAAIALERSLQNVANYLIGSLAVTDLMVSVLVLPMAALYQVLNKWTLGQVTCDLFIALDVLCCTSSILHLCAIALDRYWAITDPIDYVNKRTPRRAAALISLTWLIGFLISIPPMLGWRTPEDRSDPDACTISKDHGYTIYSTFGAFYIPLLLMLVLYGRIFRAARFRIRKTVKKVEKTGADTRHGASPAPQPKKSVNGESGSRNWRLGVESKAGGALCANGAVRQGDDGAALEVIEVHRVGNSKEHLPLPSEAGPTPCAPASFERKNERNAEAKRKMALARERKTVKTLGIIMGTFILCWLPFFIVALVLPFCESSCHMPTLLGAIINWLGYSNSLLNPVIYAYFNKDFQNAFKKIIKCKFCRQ
Briefly: Inhibition of 5HT1A receptor at 10 uM.

T3 sequence (P28223 whole entry): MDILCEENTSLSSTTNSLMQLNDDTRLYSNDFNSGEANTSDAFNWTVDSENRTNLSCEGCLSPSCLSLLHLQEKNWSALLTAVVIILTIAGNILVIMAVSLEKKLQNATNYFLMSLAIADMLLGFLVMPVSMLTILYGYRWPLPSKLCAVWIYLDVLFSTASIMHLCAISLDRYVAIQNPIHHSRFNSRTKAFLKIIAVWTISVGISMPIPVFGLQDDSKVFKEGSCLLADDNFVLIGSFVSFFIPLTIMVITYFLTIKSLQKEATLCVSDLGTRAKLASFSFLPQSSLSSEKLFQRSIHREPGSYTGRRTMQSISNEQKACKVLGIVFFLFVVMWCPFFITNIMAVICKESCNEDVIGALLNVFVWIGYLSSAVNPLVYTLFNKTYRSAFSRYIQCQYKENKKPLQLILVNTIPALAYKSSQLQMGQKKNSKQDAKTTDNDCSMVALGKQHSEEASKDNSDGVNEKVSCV
5-hydroxytryptamine receptor 4 (Homo sapiens), sequence (Q13639 whole entry): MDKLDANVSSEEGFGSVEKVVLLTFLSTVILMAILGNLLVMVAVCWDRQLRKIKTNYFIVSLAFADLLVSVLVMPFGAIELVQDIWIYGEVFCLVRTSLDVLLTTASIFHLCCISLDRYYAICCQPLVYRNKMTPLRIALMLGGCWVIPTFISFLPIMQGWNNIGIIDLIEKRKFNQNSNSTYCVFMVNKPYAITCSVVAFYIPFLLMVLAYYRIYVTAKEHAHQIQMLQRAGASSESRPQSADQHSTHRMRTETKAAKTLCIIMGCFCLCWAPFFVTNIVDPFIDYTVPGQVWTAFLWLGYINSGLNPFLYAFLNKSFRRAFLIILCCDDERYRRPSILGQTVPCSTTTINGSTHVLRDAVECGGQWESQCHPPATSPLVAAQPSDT
5-hydroxytryptamine receptor 5A (Homo sapiens), sequence (P47898 whole entry): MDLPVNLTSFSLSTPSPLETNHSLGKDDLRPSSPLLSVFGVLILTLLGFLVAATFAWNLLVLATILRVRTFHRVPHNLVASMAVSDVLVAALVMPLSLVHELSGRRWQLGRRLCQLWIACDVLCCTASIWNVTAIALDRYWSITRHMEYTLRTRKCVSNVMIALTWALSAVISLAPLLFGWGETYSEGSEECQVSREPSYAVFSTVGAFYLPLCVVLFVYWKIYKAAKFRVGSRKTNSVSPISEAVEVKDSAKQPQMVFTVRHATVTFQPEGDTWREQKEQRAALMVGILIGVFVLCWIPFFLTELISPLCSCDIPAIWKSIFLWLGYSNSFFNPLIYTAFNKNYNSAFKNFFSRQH
5-hydroxytryptamine receptor 1B (Homo sapiens), sequence (P28222 whole entry): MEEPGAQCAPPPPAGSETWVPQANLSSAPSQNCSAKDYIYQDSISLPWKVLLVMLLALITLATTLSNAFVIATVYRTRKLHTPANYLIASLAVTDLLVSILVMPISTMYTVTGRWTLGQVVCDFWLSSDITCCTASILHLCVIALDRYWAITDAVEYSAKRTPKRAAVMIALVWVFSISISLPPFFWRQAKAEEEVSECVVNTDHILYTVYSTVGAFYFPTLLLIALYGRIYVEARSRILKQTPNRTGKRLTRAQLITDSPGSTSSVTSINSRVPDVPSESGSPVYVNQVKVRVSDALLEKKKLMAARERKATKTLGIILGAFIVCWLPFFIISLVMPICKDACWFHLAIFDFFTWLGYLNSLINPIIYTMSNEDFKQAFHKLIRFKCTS

In assay [1], `COC(=O)c1ccc(N2CCN(C)CC2)cc1NCc1ccccc1` had an Activity of 72%.
With `CN1CCN(c2ccc(OCc3ccccc3)c(NCc3ccccc3)c2)CC1`, the affinity in assay [2] corresponds to a Ki of 928 nM. In other words, the sub-micromolar range.
In turn, `CN1CCN(c2ccc([N+](=O)[O-])c(-n3nc(-c4ccccc4)c4ccccc4c3=O)c2)CC1` showed a Ki in assay [2] of 1220 nM.
For `Cc1ccc(OCCNc2cc(N3CCN(C)CC3)ccc2[N+](=O)[O-])cc1C`, the Activity in assay [1] was 67%.
`CN1CCN(c2ccc([N+](=O)[O-])c(N(C)C(=O)c3ccccc3)c2)CC1` displayed an Activity in assay [1] of 49%.
On the same count and under the same terms, the same measure for `COC(=O)c1ccc(N2CCN(C)CC2)cc1NCc1ccco1`: 31%; for `CN1CCN(c2ccc([N+](=O)[O-])c(NCCOc3ccc(Cl)cc3)c2)CC1`: 21%.
In assay [1], `Cc1cccc(OCCNc2cc(N3CCN(C)CC3)ccc2[N+](=O)[O-])c1` displayed an Activity of 10%.
In turn, `NCCNc1ccc([N+](=O)[O-])c(NCc2ccccc2)c1` showed an inhibitory constant (Ki) in assay [2] of 1490 nM.
On to `CN1CCN(c2ccc(C(=O)O)c(NCc3ccco3)c2)CC1`, for which, in assay [2], the outcome was inactive.
Regarding `O=[N+]([O-])c1ccc(N2CCNCC2)cc1NCc1ccccc1`, in assay [2], the affinity, expressed as Ki, was 28 nM.
`CN1CCN(c2ccc(C(=O)O)c(NCc3ccccc3)c2)CC1` gave an Activity in [1] of 49%.
With `CN1CCN(c2ccc([N+](=O)[O-])c(NC(=O)c3ccccc3)c2)CC1`, the outcome in assay [2] was inactive.
In assay [2] (hek293), `CN1CCN(c2ccc([N+](=O)[O-])c(NCCc3ccccc3)c2)CC1` showed a Ki of 119 nM.
As to `CN(C)CCc1c[nH]c2ccc(NS(=O)(=O)c3ccc4c(Cl)cccc4c3)cc12`, the affinity in assay [2], expressed as Ki, was 0.7 nM.
`COc1cccc(OCCNc2cc(N3CCN(C)CC3)ccc2[N+](=O)[O-])c1`: the Activity in assay [1] stood at 22%.
Take `CN1CCN(c2ccc(C#N)c(NCc3ccccc3)c2)CC1`: the inhibition in [3] turned out to be 72%; in assay [4], 65%; in [5] it was 68%; in assay [6], 52%. In addition, the affinity in [7] corresponds to a Ki of 47 nM.
For the compound `CN1CCN(c2ccc(NS(=O)(=O)c3ccccc3)c(NCc3ccccc3)c2)CC1`, the inhibition in assay [3] was 14%; in assay [4] it was 2%; in [5], 63%; in assay [6], 6%; in assay [8], 61%.
In [1], `COc1ccc(CCNc2cc(N3CCN(C)CC3)ccc2[N+](=O)[O-])cc1OC` came in with an Activity of 24%.
In the case of `CN1CCN(c2ccc([N+](=O)[O-])c(-n3ncccc3=O)c2)CC1`, in assay [1], the Activity was 24%.
On to `CC(=O)Nc1cc(N2CCN(C)CC2)ccc1N(Cc1ccccc1)C(C)=O`, for which the outcome in assay [2] was inactive.
Regarding `CN1CCN(c2ccc(NCc3ccccc3)c(C(=O)O)c2)CC1`, the Activity in [1] was 37%.
Turning to `COC(=O)c1cc(N2CCN(C)CC2)ccc1NCc1ccccc1`, the inhibitory constant (Ki) in assay [2] is 1890 nM. In other words, the single-digit micromolar range.
With `CN1CCN(c2ccc([N+](=O)[O-])c(NCc3ccco3)c2)CC1`, the inhibition was greater than 90% in assay [9]; greater than 90% in [10]; less than 40% in assay [11]; less than 40% in assay [12]; less than 40% in assay [13]; greater than 90% in [14]. Besides, the inhibition in assay [15] was greater than 90%; in assay [16], 61%; in [17], 61%; in assay [18] it was greater than 90%; in [19], 61%.
With `COc1cc(N2CCN(C)CC2)ccc1NCc1ccccc1`, in assay [1], the Activity worked out at 49%.
Still for that read-out and setting: the same measure for `CN1CCN(c2ccc([N+](=O)[O-])c(NCCn3cccc3)c2)CC1`: 78%.
As for `CN1CCN(c2ccc(C#N)c(NCc3ccco3)c2)CC1`, affinity in assay [2] was put at a Ki of 1360 nM.
Still for that read-out and setting: the result for `COc1ccc(N2CCN(C)CC2)cc1NCCc1ccccc1` reads 1010 nM.
In turn, `COc1ccc(N2CCN(C)CC2)cc1NCc1ccco1` came in with an Activity in [1] of 53%.
In the case of `CN1CCN(c2ccc([N+](=O)[O-])c(Oc3ccccc3)c2)CC1`, affinity in [2] was put at a Ki of 27 nM.
As for `CN1CCN(c2ccc(C(=O)O)c(NCCc3ccccc3)c2)CC1`, in assay [2], the result was inactive.
`O=[N+]([O-])c1ccc(N2CCNCC2)cc1NCc1ccc(Cl)cc1` registered a Ki in assay [2] of 8 nM.
Consider `COc1ccc(CCNc2cc(N3CCNCC3)ccc2[N+](=O)[O-])cc1OC`, for which the Activity in [1] is 59%.
Same read-out and setting: the result for `CN1CCN(c2ccc([N+](=O)[O-])c(NCc3ccccc3)c2)CC1` reads 74%; that for `CN1CCN(c2ccc(NCc3ccccc3)c([N+](=O)[O-])c2)CC1`, 64%.
On the same count and under the same terms, the same measure for `CC(Nc1cc(N2CCNCC2)ccc1[N+](=O)[O-])c1ccccc1` (centres undefined): 13%.

As usually defined, the Ki is a measure of affinity in units of concentration, obtained from inhibition or displacement. The low end stands for a stronger hold on the target, the high end for a looser hold on the target. Usually inhibition stands for how much of the control response was suppressed. Low values mean a response near the control, high ones a response far below the control.
